Test results as given in BindingDB's records for doi:10.1074/jbc.M512374200 (German Cancer Research Center, 2006).

Experiments:
[1] = biological target: T1, Rho-associated protein kinase 2 (Bos taurus, UniProt Q28021); assay: Kinase Inhibition Assay
Experimental: The kinase activity was determined by incubation of enzyme and its substrate, and test compound, in the presence ATP/[gamma-33P] ATP. After incubation, the reaction was stopped, and the 33P-phosphorylated substrate was determined by scintillation counting.

[2] = biological target: cAMP-dependent protein kinase catalytic subunit alpha [L49I,V123M,E127D,Q181K,T183A] (Bos taurus, UniProt P00517, E127D/L49I/Q181K/T183A/V123M); assay: Kinase Activity Assay
Experimental: (§1) The enzyme activity was assayed by using an ATP regenerative NADH consuming system. The reaction was started with adding ATP to the mixture containing enzyme, substrate, and inhibitor. The decrease of NADH was time-dependent, and was measured at 340 nm with three independent measurements per data point. IC50 values were calculated using SigmaPlot 8.0 and Origin 5 software.

[3] = biological target: cAMP-dependent protein kinase catalytic subunit alpha [L49I] (Bos taurus, UniProt P00517, L49I); assay: Kinase Activity Assay; conditions: pH 6.8; 25 °C
Experimental: as §1

[4] = biological target: cAMP-dependent protein kinase catalytic subunit alpha [V123M] (Bos taurus, UniProt P00517, V123M); assay: Kinase Activity Assay; conditions: pH 6.8; 25 °C
Experimental: as §1

[5] = biological target: cAMP-dependent protein kinase catalytic subunit alpha [T183A] (Bos taurus, UniProt P00517, T183A); assay: Kinase Activity Assay
Experimental: as §1

[6] = biological target: cAMP-dependent protein kinase catalytic subunit alpha (Bos taurus, UniProt P00517); assay: Kinase Activity Assay; conditions: pH 6.8; 25 °C
Experimental: as §1

[7] = biological target: cAMP-dependent protein kinase catalytic subunit alpha [L49I,T183A] (Bos taurus, UniProt P00517, L49I/T183A); assay: Kinase Activity Assay
Experimental: as §1

[8] = biological target: cAMP-dependent protein kinase catalytic subunit alpha [V123M,Q181K,T183A] (Bos taurus, UniProt P00517, Q181K/T183A/V123M); assay: Kinase Activity Assay
Experimental: as §1

[9] = biological target: cAMP-dependent protein kinase catalytic subunit alpha [E127D] (Bos taurus, UniProt P00517, E127D); assay: Kinase Activity Assay
Experimental: as §1

[10] = biological target: cAMP-dependent protein kinase catalytic subunit alpha [Q181K,T183A] (Bos taurus, UniProt P00517, Q181K/T183A); assay: Kinase Activity Assay
Experimental: as §1

[11] = biological target: cAMP-dependent protein kinase catalytic subunit alpha [V123M,T183A] (Bos taurus, UniProt P00517, T183A/V123M); assay: Kinase Activity Assay
Experimental: as §1

[12] = biological target: T1, Rho-associated protein kinase 2; assay: Kinase Activity Assay
Experimental: as §1

[13] = biological target: cAMP-dependent protein kinase catalytic subunit alpha [L49I,V123M,Q181K,T183A] (Bos taurus, UniProt P00517, L49I/Q181K/T183A/V123M); assay: Kinase Activity Assay
Experimental: as §1

[14] = biological target: cAMP-dependent protein kinase catalytic subunit alpha [L49I,Q181K,T183A] (Bos taurus, UniProt P00517, L49I/Q181K/T183A); assay: Kinase Activity Assay
Experimental: as §1

T1 sequence (Q28021 whole entry): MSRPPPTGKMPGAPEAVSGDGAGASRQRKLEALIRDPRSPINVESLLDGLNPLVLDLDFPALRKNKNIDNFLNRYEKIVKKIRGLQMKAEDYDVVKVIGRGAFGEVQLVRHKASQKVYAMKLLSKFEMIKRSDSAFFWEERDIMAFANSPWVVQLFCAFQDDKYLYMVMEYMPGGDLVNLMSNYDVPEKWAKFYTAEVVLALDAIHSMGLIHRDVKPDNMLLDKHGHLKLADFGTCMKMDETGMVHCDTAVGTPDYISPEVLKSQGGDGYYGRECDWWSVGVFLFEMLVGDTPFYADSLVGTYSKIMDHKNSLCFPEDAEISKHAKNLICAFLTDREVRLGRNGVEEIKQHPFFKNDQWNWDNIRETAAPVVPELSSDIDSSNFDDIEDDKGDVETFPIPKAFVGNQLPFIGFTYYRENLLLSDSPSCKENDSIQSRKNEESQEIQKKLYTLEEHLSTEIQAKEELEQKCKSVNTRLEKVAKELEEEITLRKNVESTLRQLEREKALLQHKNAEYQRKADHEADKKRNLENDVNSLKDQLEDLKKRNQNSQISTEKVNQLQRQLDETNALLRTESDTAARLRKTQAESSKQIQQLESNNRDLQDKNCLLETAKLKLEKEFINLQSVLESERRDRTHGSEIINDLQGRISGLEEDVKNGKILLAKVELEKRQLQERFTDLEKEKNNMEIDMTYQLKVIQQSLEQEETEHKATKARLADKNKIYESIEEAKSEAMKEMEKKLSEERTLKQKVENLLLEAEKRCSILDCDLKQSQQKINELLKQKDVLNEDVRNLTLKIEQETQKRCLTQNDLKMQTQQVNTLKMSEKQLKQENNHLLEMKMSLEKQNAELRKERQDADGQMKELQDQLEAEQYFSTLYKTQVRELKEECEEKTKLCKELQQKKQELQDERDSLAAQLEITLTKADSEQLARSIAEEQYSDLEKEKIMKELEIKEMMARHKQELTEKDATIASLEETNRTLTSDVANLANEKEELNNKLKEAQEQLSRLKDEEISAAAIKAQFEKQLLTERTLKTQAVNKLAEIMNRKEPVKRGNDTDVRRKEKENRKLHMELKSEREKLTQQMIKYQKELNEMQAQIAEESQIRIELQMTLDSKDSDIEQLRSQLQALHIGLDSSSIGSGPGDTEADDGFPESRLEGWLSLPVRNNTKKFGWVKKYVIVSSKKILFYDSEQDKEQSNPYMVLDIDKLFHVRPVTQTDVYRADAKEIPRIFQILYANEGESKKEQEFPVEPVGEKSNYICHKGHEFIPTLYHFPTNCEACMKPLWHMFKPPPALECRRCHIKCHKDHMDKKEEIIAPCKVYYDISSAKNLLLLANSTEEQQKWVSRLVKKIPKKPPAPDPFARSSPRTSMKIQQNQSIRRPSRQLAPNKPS

SMILES	IC50 [2] [nM]	IC50 [3] [nM]	IC50 [4] [nM]	IC50 [5] [nM]	IC50 [6] [nM]	IC50 [7] [nM]	IC50 [8] [nM]	IC50 [9] [nM]	IC50 [10] [nM]	IC50 [11] [nM]	IC50 [12] [nM]	IC50 [13] [nM]	IC50 [14] [nM]	IC50 [1] [nM]
CN[C@@H]1C[C@H]2O[C@@](C)([C@@H]1OC)n1c3ccccc3c3c4c(c5c6ccccc6n2c5c31)C(=O)NC4	–	–	–	–	–	–	–	–	–	–	–	–	–	1.2
O=S(=O)(c1cccc2cnccc12)N1CCCNCC1 [AT877]	–	–	–	–	–	–	–	–	–	–	485	–	–	–
Cc1cncc2cccc(S(=O)(=O)N3CCCNC[C@@H]3C)c12 [H-1152]	–	426	1520	109	394	–	223	493	109	293	< 45	89	–	–

Now from value to molecule, other results behind:

IC50 [2] [nM]	IC50 [3] [nM]	IC50 [4] [nM]	IC50 [5] [nM]	IC50 [6] [nM]	IC50 [7] [nM]	IC50 [8] [nM]	IC50 [9] [nM]	IC50 [10] [nM]	IC50 [11] [nM]	IC50 [12] [nM]	IC50 [13] [nM]	IC50 [14] [nM]	SMILES	IC50 [1] [nM]
6000	28000	60000	9000	42000	12000	25000	16000	9000	31000	500	18000	6000	C[C@@H](N)[C@H]1CC[C@H](C(=O)Nc2ccncc2)CC1 [4-[(1R)-1-aminoethyl]-N-(pyridin-4-yl)cyclohexane-1-carboxamide]	–
1300	10300	222	< 45	56	–	68	1820	< 45	–	1800	2010	5540	CCCCCCOC(=O)[C@]1(O)C[C@@H]2O[C@@]1(C)n1c3ccccc3c3c4c(c5c6ccccc6n2c5c31)C(=O)NC4 [hexyl (15R,16S,18S)-16-hydroxy-15-methyl-3-oxo-28-oxa-4,14,19-triazaoctacyclo[12.11.2.1^{15,18}.0^{2,6}.0^{7,27}.0^{8,13}.0^{19,26}.0^{20,25}]octacosa-1(26),2(6),7(27),8(13),9,11,20(25),21,23-nonaene-16-carboxylate]	–
